Measured values: US9206130B2, “Quinoline derivatives as AXL kinase inhibitors” (Max-Planck-Gesellschaft zur Förderung der Wissenschaften …, priority 2008, dated 2015)

Tests used:
[1] = biological target: T1, wild type AXL (wtAXL) receptor tyrosine kinase (Homo sapiens, UniProt P30530); assay: NIH-3T3-AXL cellular tyrosine kinase assay (inhibition of AXL phosphorylation); type: cell-based; settings: AXL phosphorylation in NIH-3T3-AXL (clone 22) cells, serum-depleted, 2 h with compound, immunoprecipitation / anti-phosphotyrosine blot
T1 construct: WtAXL cDNA was cloned into vector pLXSN(ESK) and transfected into Phoenix E packaging cells; expressed in transfected cells; host or cells: NIH3T3 N7 mouse fibroblasts, retrovirally infected (clone 22)
T1 sequence (P30530 26-894): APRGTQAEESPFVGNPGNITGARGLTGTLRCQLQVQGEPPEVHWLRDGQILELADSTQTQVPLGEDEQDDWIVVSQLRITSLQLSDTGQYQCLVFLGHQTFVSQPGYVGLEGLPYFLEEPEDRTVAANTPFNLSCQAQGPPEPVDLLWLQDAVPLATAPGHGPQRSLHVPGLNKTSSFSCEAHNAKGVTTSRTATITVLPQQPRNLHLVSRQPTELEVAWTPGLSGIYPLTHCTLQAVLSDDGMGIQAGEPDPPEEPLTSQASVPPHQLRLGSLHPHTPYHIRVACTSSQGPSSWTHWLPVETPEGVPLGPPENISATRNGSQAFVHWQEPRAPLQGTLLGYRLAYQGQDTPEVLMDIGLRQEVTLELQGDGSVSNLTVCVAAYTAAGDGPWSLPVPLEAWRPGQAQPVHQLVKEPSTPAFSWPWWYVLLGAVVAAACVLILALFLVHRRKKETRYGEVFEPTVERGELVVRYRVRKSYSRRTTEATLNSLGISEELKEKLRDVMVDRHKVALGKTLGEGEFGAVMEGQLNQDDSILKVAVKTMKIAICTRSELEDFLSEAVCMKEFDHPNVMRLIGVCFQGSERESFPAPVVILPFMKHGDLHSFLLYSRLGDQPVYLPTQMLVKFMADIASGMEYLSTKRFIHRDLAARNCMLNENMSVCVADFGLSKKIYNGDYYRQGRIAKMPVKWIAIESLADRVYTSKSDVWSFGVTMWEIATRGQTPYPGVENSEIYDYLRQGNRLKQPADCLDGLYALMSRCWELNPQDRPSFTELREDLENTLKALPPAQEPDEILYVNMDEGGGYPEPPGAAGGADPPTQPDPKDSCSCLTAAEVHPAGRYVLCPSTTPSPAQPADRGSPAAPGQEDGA
Protocol: 3) Inhibitory Activity of Compounds on Axl Phosphorylation in NIH-3T3-AXL Cellular Tyrosine Kinase Assay
The viral supernatant was collected and used to infect target cells NIH3T3 N7. Monoclonal NIH3T3-AXL cell lines stably expressing wtAXL were generated by selecting retrovirally infected cells in medium containing puromycin (2 μg/ml) and subsequent clonal separation.
NIH-3T3-AXL Cellular Kinase Assay
Serial dilutions of compounds were added, and the cells were further incubated or 2 h. […] The clarified cell lysate (10 min at 13000 rpm at 4° C.) were used for immunoprecipitation. Equal amounts of protein were mixed with 2 μg anti-AXL polyclonal antibody (homemade) and 20 μl Protein A sepharose beads, and rotated for 6 hr at 4° C. After immunoprecipitation, the beads were washed three times with 1×HNTG (50 mM HEPES (pH 7.5), 150 mM NaCl, 10% Glycerol, 0.2% Triton X-100). The final pellet was suspended in 20 μl 2× Laemmli buffer, and boiled for 5 min at 100° C. […] The membrane was then incubated with anti-phosphotyrosine antibody (4G10) overnight at 4° C. followed by washing with 1×TBST buffer three times. After incubating membrane with HRP-conjugated anti-mouse secondary antibody for 1 hour at room temperature followed by washing with 1×TBST buffer three times, the proteins were visualized by ECL.

| Compound | melting point [°C] | IC50 [1] [nM] |
| --- | --- | --- |
| COc1cc2nccc(Oc3ccc(NS(=O)(=O)c4cccc(Cl)c4)c(F)c3)c2cc1OC [Example A25, 3-Chloro-N-[4-(6,7-dimethoxy-quinolin-4-yloxy)-2-fluoro-phenyl]-benzenesulfonamide] | 250 to 251 | 2380 |
| COc1cc2nccc(Oc3ccc(NS(=O)(=O)c4cccc(C)c4)c(F)c3)c2cc1OC [Example A26, N-[4-(6,7-Dimethoxy-quinolin-4-yloxy)-2-fluoro-phenyl]-3-methyl-benzenesulfonamide] | 244 to 245 | 4730 |
| COc1cccc(S(=O)(=O)Nc2ccc(Oc3ccnc4cc(OC)c(OC)cc34)cc2F)c1 [Example A27, N-[4-(6,7-Dimethoxy-quinolin-4-yloxy)-2-fluoro-phenyl]-3-methoxy-benzenesulfonamide] | 224 to 225 | 2540 |
| COc1cc2nccc(Oc3ccc(NS(=O)(=O)c4ccc(Cl)s4)c(F)c3)c2cc1OC [Example A28, 5-Chloro-thiophene-2-sulfonic acid [4-(6,7-dimethoxy-quinolin-4-yloxy)-2-fluoro-phenyl]-amide] | 187 to 189 | 3900 |
| COc1cc2nccc(Oc3ccc(NS(=O)(=O)c4ccc(Br)s4)c(F)c3)c2cc1OC [Example A29, 5-Bromo-thiophene-2-sulfonic acid [4-(6,7-dimethoxy-quinolin-4-yloxy)-2-fluoro-phenyl]-amide] | 207 to 209 | 2300 |
| COc1cc2nccc(Oc3ccc(NS(=O)(=O)c4cccc(Oc5ccccc5)c4)c(F)c3)c2cc1OC [Example A30, N-[4-(6,7-Dimethoxy-quinolin-4-yloxy)-2-fluoro-phenyl]-3-phenoxy-benzenesulfonamide] | 179 to 180 | 630 |
| CCn1cc(S(=O)(=O)Nc2ccc(Oc3ccnc4cc(OC)c(OC)cc34)cc2F)cn1 [Example A31, 1-Ethyl-1H-pyrazole-4-sulfonic acid [4-(6,7-dimethoxy-quinolin-4-yloxy)-2-fluoro-phenyl]-amide] | 211 to 213 | > 10000 |
| COc1cc2nccc(Oc3ccc(NS(=O)(=O)c4cn(C)cn4)c(F)c3)c2cc1OC [Example A32, 1-Methyl-1H-imidazole-4-sulfonic acid [4-(6,7-dimethoxy-quinolin-4-yloxy)-2-fluoro-phenyl]-amide] | 215 to 217 | > 10000 |
| COc1cc2nccc(Oc3ccc(NS(=O)(=O)C4CC4)c(F)c3)c2cc1OC [Example A33, Cyclopropanesulfonic acid [4-(6,7-dimethoxy-quinolin-4-yloxy)-2-fluoro-phenyl]-amide] | 179 to 180 | > 10000 |
| COc1cc2nccc(Oc3ccc(NS(=O)(=O)c4cccc(-c5ccccc5)c4)c(F)c3)c2cc1OC [Example A34, Biphenyl-3-sulfonic acid [4-(6,7-dimethoxy-quinolin-4-yloxy)-2-fluoro-phenyl]-amide] | 193 to 195 | 430 |
| COc1cc2nccc(Oc3ccc(NS(=O)(=O)c4ccc(-c5ccccc5)s4)c(F)c3)c2cc1OC [Example A36, 5-Phenyl-thiophene-2-sulfonic acid [4-(6,7-dimethoxy-quinolin-4-yloxy)-2-fluoro-phenyl]-amide] | 186 to 188 | 2800 |
| COc1cc2nccc(Oc3ccc(NS(=O)(=O)c4ccc(-c5cnco5)s4)c(F)c3)c2cc1OC [Example A37, 5-Oxazol-5-yl-thiophene-2-sulfonic acid [4-(6,7-dimethoxy-quinolin-4-yloxy)-2-fluoro-phenyl]-amide] | 206 to 208 | > 10000 |
| COc1cc2nccc(Oc3ccc(NS(=O)(=O)c4cc(F)cc(F)c4)c(F)c3)c2cc1OC [Example A38, N-[4-(6,7-Dimethoxy-quinolin-4-yloxy)-2-fluoro-phenyl]-3,5-difluoro-benzenesulfonamide] | 243 to 245 | > 10000 |
| COc1cc2nccc(Oc3ccc(NS(=O)(=O)c4cc(Cl)cc(Cl)c4)c(F)c3)c2cc1OC [Example A43, 3,5-Dichloro-N-[4-(6,7-dimethoxy-quinolin-4-yloxy)-2-fluoro-phenyl]-benzenesulfonamide] | 240 to 242 | < 1000 |
| COc1cc2nccc(Oc3ccc(NS(=O)(=O)c4ccc(C(F)(F)F)cc4Br)c(F)c3)c2cc1OC [Example A45, 2-Bromo-N-[4-(6,7-dimethoxy-quinolin-4-yloxy)-2-fluoro-phenyl]-4-trifluoromethyl-benzenesulfonamide] | 236 to 238 | > 10000 |
| COc1cc2nccc(Oc3ccc(NS(=O)(=O)c4cc(C(F)(F)F)ccc4Br)c(F)c3)c2cc1OC [Example A46, 2-Bromo-N-[4-(6,7-dimethoxy-quinolin-4-yloxy)-2-fluoro-phenyl]-5-trifluoromethyl-benzenesulfonamide] | 227 to 230 | > 10000 |
| COc1cc2nccc(Oc3ccc(NS(=O)(=O)c4ccc(Br)cc4C(F)(F)F)c(F)c3)c2cc1OC [Example A48, 4-Bromo-N-[4-(6,7-dimethoxy-quinolin-4-yloxy)-2-fluoro-phenyl]-2-trifluoromethyl-benzenesulfonamide] | 242 to 244 | 1500 |
| COc1cc2nccc(Oc3ccc(NS(=O)(=O)c4cc(Cl)cc(Cl)c4OC)c(F)c3)c2cc1OC [Example A50, 3,5-Dichloro-N-[4-(6,7-dimethoxy-quinolin-4-yloxy)-2-fluoro-phenyl]-2-methoxy-benzenesulfonamide] | 193 to 195 | < 1000 |
| COc1cc2nccc(Oc3ccc(NS(=O)(=O)c4ccccc4OC)c(F)c3)c2cc1OC [Example A52, N-[4-(6,7-Dimethoxy-quinolin-4-yloxy)-2-fluoro-phenyl]-2-methoxy-benzenesulfonamide] | 213 to 215 | > 3000 |
| COc1cc2nccc(Oc3ccc(NS(=O)(=O)c4ccccc4Cl)c(F)c3)c2cc1OC [Example A54, 2-Chloro-N-[4-(6,7-dimethoxy-quinolin-4-yloxy)-2-fluoro-phenyl]-benzenesulfonamide] | 232 to 234 | > 1000 |
| COc1cc2nccc(Oc3ccc(NS(=O)(=O)c4ccccc4Br)c(F)c3)c2cc1OC [Example A55, 2-Bromo-N-[4-(6,7-dimethoxy-quinolin-4-yloxy)-2-fluoro-phenyl]-benzenesulfonamide] | 225 to 227 | > 1000 |
| CCc1ccc(S(=O)(=O)Nc2ccc(Oc3ccnc4cc(OC)c(OC)cc34)cc2F)cc1 [Example A56, N-[4-(6,7-Dimethoxy-quinolin-4-yloxy)-2-fluoro-phenyl]-4-ethyl-benzenesulfonamide] | 193 to 195 | > 1000 |
| COc1cc2nccc(Oc3ccc(NS(=O)(=O)c4ccc(Oc5ccccc5)cc4)c(F)c3)c2cc1OC [Example A57, N-[4-(6,7-Dimethoxy-quinolin-4-yloxy)-2-fluoro-phenyl]-4-phenoxy-benzenesulfonamide] | 202 to 204 | > 3000 |
| COc1cc2nccc(Oc3ccc(NS(=O)(=O)c4cccc(F)c4C)c(F)c3)c2cc1OC [Example A58, N-[4-(6,7-Dimethoxy-quinolin-4-yloxy)-2-fluoro-phenyl]-3-fluoro-2-methyl-benzenesulfonamide] | 204 to 206 | > 1000 |
| COc1cc2nccc(Oc3ccc(NS(=O)(=O)c4ccccc4F)c(F)c3)c2cc1OC [Example A59, N-[4-(6,7-Dimethoxy-quinolin-4-yloxy)-2-fluoro-phenyl]-2-fluoro-benzenesulfonamide] | 235 to 236 | > 1000 |
